Assay results: patent US7067517B2 (priority 2001, dated 2006)
Where a name gives a salt, the structure may show the parent alone.

| Structure (SMILES) | melting point |
| --- | --- |
| O=C(Oc1ccc(Oc2ccc(C(F)(F)F)cn2)cc1)N1CCN(Cc2ccc3c(c2)OCO3)CC1 (as salt: hydrochloride) | 239 to 240 °C |
| O=C(Oc1ccc(Oc2ccc(C(F)(F)F)cc2)cc1)N1CCN(C2CCCCC2)CC1 (as salt: hydrochloride) | 290 to 291 °C |
| CN(C(=O)On1cccn1)c1ccccc1 | 63 to 67 °C |
| O=C(Oc1ccc(Oc2ccc(C(F)(F)F)cn2)cc1)N1CCN(c2ccc(Cl)c(Cl)c2)CC1 | 115 to 116 °C |
| COc1cccc(CN2CCN(C(=O)Oc3ccc(Oc4ccc(C(F)(F)F)cn4)cc3)CC2)c1 (as salt: hydrochloride) | 214 to 215 °C |
| O=C(Oc1ccc(Oc2ccc(C(F)(F)F)cn2)cc1)N1CCN(Cc2c(F)cccc2Cl)CC1 (as salt: hydrochloride) | 204 to 205 °C |
| Cc1c(Cc2ccc(F)cc2)c(=O)oc2cc(OC(=O)N(C)c3ccccc3)ccc12 | 185 to 186 °C |
| O=C(Oc1ccc(Oc2ccc(C(F)(F)F)cn2)cc1)N1CC2CC1CN2Cc1ccccc1 (stereo not shown) | 114 to 115 °C |
| Cc1cc(C)nc(Sc2ccc(OC(=O)N3CCN(Cc4cccc(F)c4)CC3)cc2)n1 | 117 to 118 °C |
| O=C(Oc1ccc(Oc2ccc(C(F)(F)F)cn2)cc1)N1CCN(c2ccccc2)CC1 | 117 °C |
| O=C(Oc1ccc(Oc2ccc(C(F)(F)F)cn2)cc1)N1CCN(Cc2ccc(F)cc2)CC1 (as salt: hydrochloride) | 240 to 243 °C |
| O=C(Oc1ccc(Oc2ccc(C(F)(F)F)cn2)cc1)N1CCN(c2ncccc2C(F)(F)F)CC1 | 131 to 132 °C |
| O=C(Oc1ccc(Oc2ccc(C(F)(F)F)cn2)cc1)N1CCN(CCc2ccncc2)CC1 (as salt: hydrochloride) | 268 to 271 °C (dec.) |
| O=C(Oc1ccc(Oc2ccc(C(F)(F)F)cn2)cc1)N1CCN(c2cnccn2)CC1 | 160 to 161 °C |
| O=C(Oc1ccc(Oc2ccc(C(F)(F)F)cn2)cc1)N1CCN(Cc2ccccc2)CC1 (as salt: hydrochloride) | 229 to 231 °C |
| O=C(Oc1ccc(Oc2ncc(C(F)(F)F)cc2Cl)cc1)N1CCN(Cc2ccccc2)CC1 (as salt: hydrochloride) | 111 to 113 °C |
| COc1cccc(N2CCN(C(=O)Oc3ccc(Oc4ccc(C(F)(F)F)cc4)cc3)CC2)c1 (as salt: hydrochloride) | 168 to 171 °C |

| Structure (SMILES) | melting point |
| --- | --- |
| O=C(Oc1ccc(Oc2ccc(C(F)(F)F)cn2)cc1)N1CCN(c2ccccn2)CC1 (as salt: hydrochloride) | 247 to 248 °C |
| CCCCN1CCN(C(=O)Oc2ccc(Oc3ccc(C(F)(F)F)cn3)cc2)CC1 (as salt: hydrochloride) | 221 to 222 °C |
| O=C(Oc1ccc(Oc2ccc(C(F)(F)F)cn2)cc1)N1CCN(c2ccc3c(c2)OCO3)CC1 | 146 to 147 °C |
| O=C(CN1CCN(C(=O)Oc2ccc(Oc3ccc(C(F)(F)F)cn3)cc2)CC1)N1CCCC1 (as salt: hydrochloride) | 224 °C |
| O=C(Oc1ccc(Oc2ccc(C(F)(F)F)cn2)cc1)N1CCN(c2ncccn2)CC1 | 120 to 121 °C |
| COc1ccc(CN2CCN(C(=O)Oc3ccc(Oc4ccc(C(F)(F)F)cn4)cc3)CC2)cc1 (as salt: hydrochloride) | 237 to 238 °C |
| O=C(Oc1ccc(Oc2ccc(C(F)(F)F)cn2)cc1)N1CCN(CCc2cccs2)CC1 (as salt: hydrochloride) | 236 to 237 °C |
| Cc1ccc(CN2CCN(C(=O)Oc3ccc(Oc4ccc(C(F)(F)F)cc4)cc3)CC2)cc1 (as salt: hydrochloride) | 250 to 252 °C |
| O=C(Oc1ccc(Oc2ccc(C(F)(F)F)cn2)cc1)N1CCN(CCO)CC1 (as salt: hydrochloride) | 255 °C |
| CC(C)(C)c1ccc(CN2CCN(C(=O)Oc3ccc(Oc4ccc(C(F)(F)F)cn4)cc3)CC2)cc1 (as salt: hydrochloride) | 274 to 275 °C |
| O=C(Oc1ccc(Oc2ccc(C(F)(F)F)cn2)cc1)N1CCN(Cc2ccccn2)CC1 (as salt: hydrochloride) | 189 to 190 °C |
| COc1ccc(N2CCN(C(=O)Oc3ccc(Oc4ccc(C(F)(F)F)cn4)cc3)CC2)c(OC)c1 | 98 to 99 °C |
| O=C(Oc1ccc(Oc2ccc(C(F)(F)F)cn2)cc1)N1CCN(C2CCCC2)CC1 (as salt: hydrochloride) | 294 to 295 °C |
| O=C(Oc1ccc(Oc2ccc(C(F)(F)F)cn2)cc1)N1CCN(c2ccc(F)cc2)CC1 (as salt: hydrochloride) | 131 to 132 °C |
| O=C(Oc1ccc(Oc2ccc(C(F)(F)F)cn2)cc1)N1CCN(Cc2cccc(F)c2)CC1 (as salt: hydrochloride) | 138 to 139 °C |
| O=C(Oc1ccc(Oc2ccc(C(F)(F)F)cc2)cc1)N1CCN(CCOCCO)CC1 (as salt: hydrochloride) | 176 to 178 °C |
| O=C(Oc1ccc(Oc2ccc(C(F)(F)F)cn2)cc1)N1CCCN(Cc2ccc(-c3ccccc3)cc2)CC1 | 143 °C |
